Experimental data as given in patent US5637309A, “Physiologically active substance-prolonged releasing-type pharmaceutical preparation” (Shiseido Company, Ltd., priority 1993, dated 1997).

Legend:
basilar artery = assay: Cerebral vasospasm inhibition test on maxadilan (SEQ ID NO: 3) by cisterna puncture, angiography of the basilar artery; type: in vivo, Japanese white rabbit; conditions: aqueous solution, 7 μg per kg
Text: Cerebral vasospasm inhibition test on maxadilan (SEQ ID NO: 3)
A Japanese white rabbit (male, weighing 2-3 kg) was subjected to general anesthesia by injection of sodium pentobarbital through the auricular vein. After the rabbit was retained so as not to move, the surroundings of the punctured vein were disinfected with sterilized ethanol, a self-retaining needle was punctured into the vein, and immediately thereafter, a silicone-made extension tube equipped, at one end, with a three way cock connected at the two ways with 10-ml syringes each containing physiological saline and connected at the residual way with a 10-ml syringe containing sodium pentobarbital was connected to the self-retaining needle (when the blood vessel is thin, the blood vessel is stimulated by fingers to dilate it). […]
A spot for angiography was determined by transillumination, the head was fast fixed, back flow of the blood was confirmed, and 0.8 ml of a contrast medium was injected under a certain pressure (2.3 kg/cm^2). […]
Groups of rabbits, one group consisting of 5 animals, were treated as mentioned above, and among them, rabbits were selected wherein when the basilar artery was divided, starting from the junction from the vertebral artery, into three equal parts, and the diameter at the middle point was measured, spasm occurred at a level of 18% or more. […]

[1] = relative to SEQ ID NO: 2; cited from earlier work

What does the source list for “SEQ ID NO: 3: peptide wherein an amino acid sequence residue GSIL- is bonded to the N-terminus of SEQ ID NO: 1 maxadilan”?
Inhibition of spasm compared to the sterile water administration group (basilar artery; 3 days after blood injection): spasm was significantly inhibited; Duration of significant inhibition of spasm (from immediately after the administration) (basilar artery; vs sterile water group): about 4 hours; Vasodilative action (particularly, erythema activities), times higher than that of SEQ ID NO: 2 [1]: about 10 times
